target: human Cav2.2 (Homo sapiens, UniProt Q00975); assay: Assessment of calcium channel activity using FLIPR (Ca2+ influx in IMR32 cells); assay type: cell-based; conditions: 60 minute pre-incubation with compound, 2 μM nifedipine, depolarized with 80 mM KCl
Summary of the method: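 IC50 came from sigmoidal non-linear regression of percent inhibition, relative to uninhibited activity, across compound concentrations. Calcium influx was measured by FLIPR in IMR32 cells plated at 1-1.2×10^5 cells/well and cultured 48 h at 37 °C.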

Chain of human Cav2.2 (Q00975 whole entry): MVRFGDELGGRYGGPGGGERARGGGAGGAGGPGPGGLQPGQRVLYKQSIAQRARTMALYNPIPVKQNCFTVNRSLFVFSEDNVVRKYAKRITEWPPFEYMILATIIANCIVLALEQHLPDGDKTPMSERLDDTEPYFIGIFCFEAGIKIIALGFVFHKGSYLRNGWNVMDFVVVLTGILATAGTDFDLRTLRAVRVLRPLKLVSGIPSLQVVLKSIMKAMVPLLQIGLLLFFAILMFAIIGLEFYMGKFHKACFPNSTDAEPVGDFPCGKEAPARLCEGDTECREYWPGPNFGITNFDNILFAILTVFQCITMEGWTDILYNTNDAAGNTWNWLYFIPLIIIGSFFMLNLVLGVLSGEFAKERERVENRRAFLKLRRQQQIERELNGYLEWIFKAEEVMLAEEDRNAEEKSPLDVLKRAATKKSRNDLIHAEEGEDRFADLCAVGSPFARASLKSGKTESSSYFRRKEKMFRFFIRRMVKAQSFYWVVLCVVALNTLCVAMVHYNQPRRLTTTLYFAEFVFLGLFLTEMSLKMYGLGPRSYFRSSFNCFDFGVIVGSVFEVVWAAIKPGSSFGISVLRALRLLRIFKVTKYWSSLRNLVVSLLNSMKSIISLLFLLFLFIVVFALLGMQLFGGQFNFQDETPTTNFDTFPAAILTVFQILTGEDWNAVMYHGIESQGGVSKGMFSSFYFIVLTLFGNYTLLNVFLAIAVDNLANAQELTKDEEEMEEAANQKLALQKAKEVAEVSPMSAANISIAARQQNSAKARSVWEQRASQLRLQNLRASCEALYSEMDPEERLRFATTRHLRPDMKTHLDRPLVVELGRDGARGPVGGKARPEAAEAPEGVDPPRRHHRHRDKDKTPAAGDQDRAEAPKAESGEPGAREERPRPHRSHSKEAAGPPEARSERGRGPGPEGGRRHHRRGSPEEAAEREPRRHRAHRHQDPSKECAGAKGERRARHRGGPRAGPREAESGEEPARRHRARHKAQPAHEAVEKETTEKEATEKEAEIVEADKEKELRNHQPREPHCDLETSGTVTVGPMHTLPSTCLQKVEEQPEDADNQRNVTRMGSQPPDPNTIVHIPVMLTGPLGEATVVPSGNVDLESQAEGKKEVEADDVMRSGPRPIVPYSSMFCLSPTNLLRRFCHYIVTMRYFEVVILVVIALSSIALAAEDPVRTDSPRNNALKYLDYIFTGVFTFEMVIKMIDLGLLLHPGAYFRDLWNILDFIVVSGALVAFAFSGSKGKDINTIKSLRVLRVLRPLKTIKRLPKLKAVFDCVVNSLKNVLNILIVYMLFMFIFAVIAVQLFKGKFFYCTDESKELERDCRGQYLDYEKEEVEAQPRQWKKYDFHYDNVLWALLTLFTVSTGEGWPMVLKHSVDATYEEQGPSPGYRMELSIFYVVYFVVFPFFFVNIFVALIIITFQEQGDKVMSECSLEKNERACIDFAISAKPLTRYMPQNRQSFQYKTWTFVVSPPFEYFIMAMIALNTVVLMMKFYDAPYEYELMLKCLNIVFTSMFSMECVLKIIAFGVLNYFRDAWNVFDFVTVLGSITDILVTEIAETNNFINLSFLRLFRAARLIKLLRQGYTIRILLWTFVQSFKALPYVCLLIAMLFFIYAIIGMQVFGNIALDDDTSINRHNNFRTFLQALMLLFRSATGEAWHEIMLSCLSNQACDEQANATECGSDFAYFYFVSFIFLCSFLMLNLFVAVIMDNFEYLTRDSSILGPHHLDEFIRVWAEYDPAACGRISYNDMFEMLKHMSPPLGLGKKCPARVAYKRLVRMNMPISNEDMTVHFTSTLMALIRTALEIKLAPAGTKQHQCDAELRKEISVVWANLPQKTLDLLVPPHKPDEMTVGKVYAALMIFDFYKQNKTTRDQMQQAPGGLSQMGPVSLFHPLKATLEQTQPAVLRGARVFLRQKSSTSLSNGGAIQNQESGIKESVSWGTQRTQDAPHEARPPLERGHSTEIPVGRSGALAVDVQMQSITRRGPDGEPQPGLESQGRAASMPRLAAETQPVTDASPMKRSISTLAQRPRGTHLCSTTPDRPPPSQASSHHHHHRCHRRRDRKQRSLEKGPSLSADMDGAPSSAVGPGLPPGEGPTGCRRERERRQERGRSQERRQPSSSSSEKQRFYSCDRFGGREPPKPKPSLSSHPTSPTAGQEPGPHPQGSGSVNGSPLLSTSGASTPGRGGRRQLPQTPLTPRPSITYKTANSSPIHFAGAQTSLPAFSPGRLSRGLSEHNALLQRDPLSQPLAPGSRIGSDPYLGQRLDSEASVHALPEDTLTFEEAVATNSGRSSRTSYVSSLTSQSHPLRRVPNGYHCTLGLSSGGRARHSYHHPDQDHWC
Chain of human Cav2.2 (P54289 25-946 partner limits assumed): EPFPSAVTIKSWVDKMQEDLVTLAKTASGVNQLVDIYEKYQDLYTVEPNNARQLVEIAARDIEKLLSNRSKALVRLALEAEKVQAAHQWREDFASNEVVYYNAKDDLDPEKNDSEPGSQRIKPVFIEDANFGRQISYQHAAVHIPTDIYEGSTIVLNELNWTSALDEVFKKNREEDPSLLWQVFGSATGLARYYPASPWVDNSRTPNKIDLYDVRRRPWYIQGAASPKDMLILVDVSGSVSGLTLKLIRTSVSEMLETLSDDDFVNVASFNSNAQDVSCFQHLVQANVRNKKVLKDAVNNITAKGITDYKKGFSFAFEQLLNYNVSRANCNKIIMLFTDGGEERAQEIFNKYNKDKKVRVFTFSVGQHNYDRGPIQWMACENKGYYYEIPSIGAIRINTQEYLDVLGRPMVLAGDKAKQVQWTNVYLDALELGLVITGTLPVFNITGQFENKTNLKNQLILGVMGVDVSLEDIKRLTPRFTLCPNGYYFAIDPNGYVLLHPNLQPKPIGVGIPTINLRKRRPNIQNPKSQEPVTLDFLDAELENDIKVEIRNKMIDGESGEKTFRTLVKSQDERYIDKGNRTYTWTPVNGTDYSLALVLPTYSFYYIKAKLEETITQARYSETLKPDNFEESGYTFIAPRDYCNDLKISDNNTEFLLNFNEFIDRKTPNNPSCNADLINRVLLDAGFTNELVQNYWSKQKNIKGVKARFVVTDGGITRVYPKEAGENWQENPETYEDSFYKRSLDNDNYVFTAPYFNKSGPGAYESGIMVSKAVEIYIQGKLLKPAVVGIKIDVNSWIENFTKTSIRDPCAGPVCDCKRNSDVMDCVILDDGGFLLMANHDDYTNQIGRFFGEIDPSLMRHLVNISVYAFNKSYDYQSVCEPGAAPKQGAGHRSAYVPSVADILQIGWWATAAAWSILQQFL
Chain of human Cav2.2 (P54289 947-1103 partner limits assumed): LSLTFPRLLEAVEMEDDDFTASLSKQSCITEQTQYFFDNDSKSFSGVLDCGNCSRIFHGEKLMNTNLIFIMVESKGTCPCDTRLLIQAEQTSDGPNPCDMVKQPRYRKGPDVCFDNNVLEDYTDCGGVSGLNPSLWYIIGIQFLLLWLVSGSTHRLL
Chain of human Cav2.2 (P54284 whole entry partner): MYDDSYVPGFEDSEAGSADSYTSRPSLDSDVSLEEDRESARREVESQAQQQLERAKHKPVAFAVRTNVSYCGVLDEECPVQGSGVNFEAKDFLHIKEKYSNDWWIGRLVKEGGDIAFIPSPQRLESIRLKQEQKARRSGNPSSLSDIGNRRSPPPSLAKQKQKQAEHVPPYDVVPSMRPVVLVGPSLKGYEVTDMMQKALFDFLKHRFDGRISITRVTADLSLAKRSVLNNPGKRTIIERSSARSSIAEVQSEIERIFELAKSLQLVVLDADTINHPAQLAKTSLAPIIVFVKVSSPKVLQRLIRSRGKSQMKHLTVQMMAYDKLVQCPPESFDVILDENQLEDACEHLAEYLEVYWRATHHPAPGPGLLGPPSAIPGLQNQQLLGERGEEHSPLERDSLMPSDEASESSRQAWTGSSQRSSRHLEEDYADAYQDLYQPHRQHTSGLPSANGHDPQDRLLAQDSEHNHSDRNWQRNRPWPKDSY

Going from `CCC[C@H](NC(C)C)C(=O)N[C@@H]1CC[C@H]2CN(S(=O)(=O)c3cccc(C(F)(F)F)c3)C[C@H]21` [Example 484, N^2-isopropyl-N^1-((3aS,4R,6aR)-2-{[3-(trifluoromethyl)phenyl]sulfonyl}octahydrocyclopenta[c]pyrrol-4-yl)-L-norvalinamide] to `CC(C)C[C@H](NC(C)C)C(=O)N[C@H]1CC[C@@H]2CN(S(=O)(=O)c3cccc(C(F)(F)F)c3)C[C@@H]21` [Example 496, N^2-isopropyl-N^1-((3aR,4S,6aS)-2-{[3-(trifluoromethyl)phenyl]sulfonyl}octahydrocyclopenta[c]pyrrol-4-yl)-L-leucinamide], the IC50 falls from 970 nM to 530 nM (1.8-fold).

Going from `CC(C)N[C@@H](CC(C)(C)C)C(=O)N[C@H]1CC[C@@H]2CN(S(=O)(=O)c3cc(C(F)(F)F)ccc3Cl)C[C@@H]21` [Example 486, N^1-((3aR,4S,6aS)-2-{[2-chloro-5-(trifluoromethyl)phenyl]sulfonyl}octahydrocyclopenta[c]pyrrol-4-yl)-N^2-isopropyl-4-methyl-L-leucinamide] to `CC(C)N[C@@H](CC(C)(C)C)C(=O)N[C@H]1CC[C@@H]2CN(S(=O)(=O)c3ccc(C(F)(F)F)cc3Cl)C[C@@H]21` [Example 487, N^1-((3aR,4S,6aS)-2-{[2-chloro-4-(trifluoromethyl)phenyl]sulfonyl}octahydrocyclopenta[c]pyrrol-4-yl)-N^2-isopropyl-4-methyl-L-leucinamide], the IC50 falls from 1210 nM to 560 nM (2.2-fold).

Compared with `CC(C)N[C@@H](CC(C)(C)C)C(=O)N[C@H]1CC[C@@H]2CN(c3ccc(C(F)(F)F)cn3)C[C@@H]21` [Example 490, N^2-isopropyl-4-methyl-N^1-{(3aR,4S,6aS)-2-[5-(trifluoromethyl)pyridin-2-yl]octahydrocyclopenta[c]pyrrol-4-yl}-L-leucinamide], `CC(C)N[C@@H](CC(C)(C)C)C(=O)N[C@H]1CC[C@@H]2CN(c3cccc(C(F)(F)F)n3)C[C@@H]21` [Example 491, N^2-isopropyl-4-methyl-N^1-{(3aR,4S,6aS)-2-[6-(trifluoromethyl)pyridin-2-yl]octahydrocyclopenta[c]pyrrol-4-yl}-L-leucinamide] is 12-fold lower in IC50: 3120 nM for the first, 260 nM for the second.

`CC(C)N[C@@H](CC(C)(C)C)C(=O)N1C[C@H]2CC[C@H](NC(=O)C(c3ccc(F)cc3)c3ccc(F)cc3)[C@H]2C1` [Example 492, 2,2-bis(4-fluorophenyl)-N-[(3aR,4S,6aS)-2-(N-isopropyl-4-methyl-L-leucyl)octahydrocyclopenta[c]pyrrol-4-yl]acetamide] and `CC(C)(C)C[C@H](NC1CC1)C(=O)N[C@H]1CC[C@@H]2CN(S(=O)(=O)c3ccc(C(F)(F)F)cc3)C[C@@H]21` [Example 499, N^2-cyclopropyl-4-methyl-N^1-((3aR,4S,6aS)-2-{[4-(trifluoromethyl)phenyl]sulfonyl}octahydrocyclopenta[c]pyrrol-4-yl)-L-leucinamide] are within 1.5-fold of each other in IC50: 2000 nM for the first, 2700 nM for the second.

`CC(C)C[C@@H](C(=O)N[C@H]1CC[C@@H]2CN(S(=O)(=O)c3cccc(C(F)(F)F)c3)C[C@@H]21)N(C)C` [Example 497, N^2,N^2-dimethyl-N^1-((3aR,4S,6aS)-2-{[3-(trifluoromethyl)phenyl]sulfonyl}octahydrocyclopenta[c]pyrrol-4-yl)-L-leucinamide] and `CC(C)(C)C[C@H](NC1CCCC1)C(=O)N[C@H]1CC[C@@H]2CN(S(=O)(=O)c3ccc(C(F)(F)F)cc3)C[C@@H]21` [Example 501, N^2-cyclopentyl-4-methyl-N^1-((3aR,4S,6aS)-2-{[4-(trifluoromethyl)phenyl]sulfonyl}octahydrocyclopenta[c]pyrrol-4-yl)-L-leucinamide] are within 1.5-fold of each other in IC50: 570 nM for the first, 820 nM for the second.

Work on `CC(C)(C)C[C@H](NC1CCCCC1)C(=O)N[C@H]1CC[C@@H]2CN(S(=O)(=O)c3ccc(C(F)(F)F)cc3)C[C@@H]21` [Example 502, N^2-cyclohexyl-4-methyl-N^1-((3aR,4S,6aS)-2-{[4-(trifluoromethyl)phenyl]sulfonyl}octahydrocyclopenta[c]pyrrol-4-yl)-L-leucinamide] yielded an IC50 of 970 nM.

Source: patent US8129417B2, “Substituted octahydrocyclopenta[C]pyrrol-4-amines as calcium channel blockers” (Abbott Laboratories, priority 2008, dated 2012)
